# “Also recorded” adds a separate entry of the source. Peptide text beside a SMILES is read from it. * marks the point of attachment. Cbz = O=C(OCc1ccccc1)*; CH2F = FC*
# Tests used:
# [1] = test system: cells processed from melanoma tumor fragments; assay: Anti-CD3 stimulation on expansion of tumor-derived cells; assay type: cell-based, human
# Method: Cells processed from melanoma tumor fragments as described in Examples 1 and 2, were cultured in the presence or absence of 50 ng/mL OKT3, a human anti-CD3 monoclonal antibody. Cell cultures were carried out to between 14 and 31 days in either a conventional 6-well plate or a gas permeable culture plate with RPMI or OpTmizer media. […] About 50% of cellular media was exchanged every other day beginning on the 5th day of culture as described previously. Cells were then counted using the NC-200 Automated Cell Counter (Chemometec).
# [2] = test system: T-cells from three healthy donors; assay: Post-stimulation CD4+ and CD8+ activation markers, flow cytometry; assay type: cell-based, human; conditions: 50 ng/mL OKT3, compared to culture in the absence of OKT3
# Method: Specific markers of activation on the CD4+ and CD8+ cell populations were measured using flow cytometry over a time course of 3-48 hours. Specifically, the following markers were assessed: CD38 and CD39 (FIG. 12A and FIG. 13A), CD134 and CD137 (FIG. 12B and FIG. 13B), and CD69 and CD90 (FIG. 12C and FIG. 13C).
# [3] = test system: expanded human T cells from three healthy donors; assay: T cell adjuvant high throughput screen, total viable CD3+ cell count; assay type: cell-based; conditions: 6 days; for total viable CD3+ cell count compared with DMSO treatment control: 10 μg/mL antibodies, 25 μM Z-VAD-FMK, irrespective of activation status (with or without OKT3)
# Method: Cells were expanded from PBMC derived from Ficoll gradient separation from three healthy donor's apheresis material. […] Cells were next seeded into gas permeable 100M culture vessels and expanded for 7-14 days to achieve a large bank of T cells, and cryopreserved. […] Half of wells were additionally supplemented with 50 ng/mL OKT3, a human anti-CD3 monoclonal antibody. In total, 15 test adjuvant agents were tested for their impact on cell viability in the presence and absence of anti-CD3 activation (see Table E3). Cells were cultured for 6 days total, including a 50% medium exchange on culture day 3, and monitored for total viable CD3+ cell count.
# Total viable CD3+ cell count for cells grown in the absence and presence of OKT3 stimulation are shown in FIGS. 27A-C and FIGS. 28A-C, respectively. The results shown are for the following concentrations of adjuvant: 10 μg/mL for tested antibodies (Tavolixizumab, Oxelumab, Ipilimumab, Tocilizumab, Urelumab, Pembrolizumab, Varlilumab, anti-GITR MK-1248, anto-human FasL); 25 μM for Z-VAD-FMK pan-caspase inhibitor; 250 nM for HSP inhibitor NVP-HSP990; and 1000 IU/mL for cytokine (IL-7, IL-15 or IL-21).
# [4] = test system: PBMC from two healthy donors; assay: Checkpoint modulators and costimulatory agonist antibodies on T cell phenotype, flow cytometry; assay type: cell-based, human; conditions: 0.5, 1, 10, or 20 μg/mL; 50 ng/ml OKT3; 48 hours
# Method: Cells were then seeded into a 24-well gas permeable cell culture plate at a density of 5.0×10^5 cells/cm^2. Cells were activated for 48 hours using 50 ng/ml OKT3, a human anti-CD3 monoclonal antibody, and were additionally treated with agents as described below. Following 48 hours in culture, cells were analyzed for phenotype.
# Cells were divided into 6 treatment groups, as follows: Ipilimumab (anti-CTLA4), Pembrolizumab (anti-PD1), Tavolixizumab (anti-TNFRSF4), Urelumab (anti-CD137), and Varlilumab (anti-CD27), as well as a no added agent control. For all test groups, cells in each treatment group were cultured in the presence of the monoclonal antibodies at 0.5, 1, 10, or 20 μg/mL.
# None of the tested antibodies appeared to affect the memory differentiation state of the T cells. T cell phenotype was assessed for CD4+and CD8+cells independently via flow cytometry for markers of activation OX40, 41BB, CD107a, and PD1. Results are shown in FIG. 38 (CD3+), FIG. 39 (CD4+) and FIG. 40 (CD8+). Higher concentrations of Varlilumab, an agonist anti-CD27 antibody, promoted 41BB and CD107a expression on CD3+ T cells (FIG. 38B and 38C), CD4+ T cells (FIG. 39B and 39C) and CD8+ T cells (FIGS. 40B and 40C). Urelumab, an agonist CD137 receptor antibody, promoted 41BB expression on CD4 T cells (FIG. 39B) and CD8+ T cells (FIG. 40B). Pembrolizumab, an anti-PD-1 antagonist, decreased PD1 expression on CD4 T cells (FIG. 39D)
# [5] = test system: PBMC from three healthy donors; assay: T cell expansion with Fas ligand or caspase inhibition, anti-CD3 stimulation; assay type: cell-based, human; conditions: OKT3 activation, caspase inhibitor 2 μM present continuously, replenished each media exchange
# Method: (§1) Apoptotic inhibitors directed against Fas- and caspase-mediated pathways were assessed to determine effects on tumor reactive T cells during manufacturing. The studies were carried out in healthy donors, and thus, stimulation of the T cells were carried out with anti-CD3 (OKT3) or anti-CD3/anti-CD28 stimulation in order to mimic conditions present in the tumor microenvironment (TME). Constant activation signals present in the tumor microenvironment, as can be stimulated by anti-CD3 or anti-CD3/anti-CD28 activation can be detrimental to T cell growth. Cellular viability and projected cell numbers were used to compare the impact of modulation of apoptotic pathways in both a transient and a continuous activation assay, the latter of which more closely recapitulates the tumor microenvironment.
# Immune Cell Serum Replacement (ThermoFisher) at 5%, and a final concentration of 2.0 mM of a L-alanyl-L-glutamine dipeptide form of glutamine (GlutaMAX Supplement; Thermofisher). Cells were then seeded into a 24-well gas permeable cell culture plate at a density of 2.14×10^5 cells/mL (7.5×10^5 cells/cm^2). […]
# Cultures were maintained for at least 13 days with a 50% media exchange every other day beginning on culture day 2. Cell counts and viability were monitored every other day. […]
# [6] = test system: PBMC from two healthy donors; assay: T cell expansion with Fas ligand or caspase inhibition, anti-CD3/anti-CD28 stimulation (transient or continuous activation); assay type: cell-based, human; conditions: 2 μM
# Method: as §1
# Cells were then seeded into a 24-well gas permeable cell culture plate at a density of 1.5×10^5 cells/mL (5.0×10^5cells/cm^2).
# Culture wells were assigned to one of two treatment groups, transient or continuous activation. For transient activation, anti-CD3/anti-CD28 paramagnetic beads (Dyanbeads™) were added to the culture media at a ratio of 1 bead per cell starting on culture day 0, and then were removed during media exchange on day 2. […]
# Cell counts and viability were monitored every other day. […]
# [7] = test system: CRC tumor fragment and SCS cultures; assay: Caspase inhibition in tumor processing, fragment or SCS cultures; assay type: cell-based, human
# Method: Half of cultures contained media additionally supplemented with 2 μM of pan-caspase inhibitor Z-VAD-FMK which was replenished at each media exchange. Cultures were incubated at about 37° C. for a minimum of 18 days with a 50% medium exchange occurring every 2-3 days following culture day 5. Cell counts were performed on day 5 and at each medium exchange using the NC-200 Automated Cell Counter (ChemoMetec).
# [8] = presence versus absence of 50 ng/mL OKT3, 14 to 31 days
molecule,measurement,setting,value
OKT3: human anti-CD3 monoclonal antibody,T cell expansion,"[1]; 50 ng/mL OKT3, 14 to 31 days, 300 or 6000 IU/mL IL-2",supported T cell expansion
same,fold expansion,"[1]; donor 6, all conditions, presence or absence of anti-CD3 stimulation",2-4 fold
same,fold expansion,[1]; [8],largely similar; also recorded: did not substantially impact
same,total cell number,[1]; [8],largely similar; also recorded: did not substantially impact
same,"upregulation of activation markers (CD38, CD39, CD134, CD137, CD69, CD90) on CD8+ T cells",[2]; 48 hours following stimulation,all assessed markers were upregulated to some extent
same,"upregulation of activation markers (CD38, CD39, CD134, CD137, CD69, CD90) on CD4+ T cells",[2]; first 48 hours following stimulation,all assessed markers were upregulated to some extent
IL-15: recombinant cytokine tested as T cell adjuvant,"dose response, cell number",[3]; 62.5 IU/ml-1000 IU/ml,cell number increased with increasing concentration
Urelumab: agonist CD137 receptor antibody,41BB expression on CD4+ T cells,[4],promoted
same,41BB expression on CD8+ T cells,[4],promoted
Oxelumab: anti-OX40L antibody,total viable CD3+ cell count compared with DMSO treatment control,[3],consistently higher viable cell counts than the DMSO treatment control
Varlilumab: agonist anti-CD27 antibody,41BB expression on CD3+ T cells,[4],promoted
same,41BB expression on CD4+ T cells,[4],promoted
same,41BB expression on CD8+ T cells,[4],promoted
same,CD107a expression on CD3+ T cells,[4],promoted
same,CD107a expression on CD4+ T cells,[4],promoted
same,CD107a expression on CD8+ T cells,[4],promoted
"COC(=O)C[C@H](NC(=O)[C@H](C)NC(=O)[C@@H](NC(=O)OCc1ccccc1)C(C)C)C(=O)CF [Z-VAD-FMK, carbobenzoxy-valyl-alanyl-aspartyl-[O-methyl]-fluoromethylketone] (Cbz-Val-Ala-Asp(OMe)-CH2F)",total viable CD3+ cell count compared with DMSO treatment control,[3],consistently higher viable cell counts than the DMSO treatment control
same,cell growth (total cell number),[5],greatest cell growth across donors
same,cell growth (total cell number),[5]; listed as caspase inhibition,superior growth
same,total viable cell number and viability versus other conditions,[6]; caspase inhibitor continuously,outperformed the other conditions
same,total viable cell number and viability versus other conditions,[6]; caspase inhibitor transiently (day 0 only),outperformed the other conditions
same,outgrowth of T cells,[7]; SCS conditions,outgrowth of T cells was not observed
same,cell viability,"[7]; SCS culture, 2 μM replenished at each media exchange",similarly high
same,cell viability,"[7]; tumor fragment-derived culture, 2 μM replenished at each media exchange",high
same,"outgrowth of cells (fold expansion, total viable cells)","[7]; tumor fragment-derived culture, 2 μM replenished at each media exchange, minimum 18 days",outgrowth of cells was superior
Pembrolizumab: anti-PD1 antibody,total viable CD3+ cell count compared with DMSO treatment control,[3],consistently higher viable cell counts than the DMSO treatment control
same,PD1 expression on CD4 T cells,[4],decreased
